Literature values as cited in article PMC4368888, “Preclinical to Clinical Translation of CNS Transporter Occupancy of TD-9855, a Novel Norepinephrine and Serotonin Reuptake Inhibitor” (International Journal of Neuropsychopharmacology, 2015).

Experiments:
SERT and NET = settings: in vitro; ref Wu et al., 2008; Tsuruda et al., 2010; cited from earlier work
SERT = SERT (Homo sapiens, UniProt P31645); settings: approved dose (100mg) for fibromyalgia; ref Nogami et al., 2013; cited from earlier work
Sequence of SERT (P31645 whole entry): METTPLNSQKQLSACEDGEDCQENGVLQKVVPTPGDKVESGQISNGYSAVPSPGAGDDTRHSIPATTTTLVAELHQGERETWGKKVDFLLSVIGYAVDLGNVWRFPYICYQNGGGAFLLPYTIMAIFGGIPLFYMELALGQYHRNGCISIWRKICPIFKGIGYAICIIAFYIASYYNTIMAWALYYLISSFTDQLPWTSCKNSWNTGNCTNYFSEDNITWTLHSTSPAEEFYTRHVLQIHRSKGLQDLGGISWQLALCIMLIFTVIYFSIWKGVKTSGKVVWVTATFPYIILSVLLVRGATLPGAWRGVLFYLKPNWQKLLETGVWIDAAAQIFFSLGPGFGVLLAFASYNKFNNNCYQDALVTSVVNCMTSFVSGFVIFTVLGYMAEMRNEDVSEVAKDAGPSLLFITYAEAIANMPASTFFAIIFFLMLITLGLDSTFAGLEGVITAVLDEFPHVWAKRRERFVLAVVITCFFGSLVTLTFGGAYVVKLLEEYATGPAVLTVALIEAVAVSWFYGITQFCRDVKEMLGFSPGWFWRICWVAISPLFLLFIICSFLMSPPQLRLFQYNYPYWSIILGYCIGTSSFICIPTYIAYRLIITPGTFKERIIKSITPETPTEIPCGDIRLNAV

| Structure (SMILES) | functional selectivity for NE (SERT and NET) [fold] | occupancy of SERT (SERT) |
| --- | --- | --- |
| CNCC[C@@H](Oc1ccccc1C)c1ccccc1 [atomoxetine] | ≥ 20 | – |
| CCN(CC)C(=O)C1(c2ccccc2)CC1CN (centres unmarked) [milnacipran] | – | ~ 40% |
